Data reported in US9963506B2, “Human-mouse chimeric anti-CD147 antibody with non-fucosylated glycosylation” (Fourth Military Medical University, priority 2015, dated 2018).

What was measured:
A549 cells [1] = test: ADCC assay (LDH release), human spleen effector cells; type: cell-based; conditions: A549 target cells
Experimental: (§1) NCI-H520, A549 and NCI-H446 cells (1×10^4 per well) were incubated with Metuzumab or cHAb18 mAb for 30 min at 37° C. Effector cells (Spleen cells) were added at the ratio of effector cells to […] (E/T) 50:1 for 24 hours at 37° C. in CO2 incubator. After centrifugation, supernatants were harvested and lactate dehydrogenase (LDH) activity were measured. Data represent mean±SD of five independent experiments.
(§2) The ADCC activity was determined by measuring lactate dehydrogenase (LDH) activity in the medium using a Cytotoxicity Detection Kit (LDH; Roche) according to the manufacturer's protocols.
(§3) In vitro ADCC assays were performed with human lung cancer cell lines (NCI-H520, A549 and NCI-H446) as target cells, and human spleen cells were used as effector cells. The target cells (1×10^4 per well) were washed with PBS and pre-incubated with antibodies solution for 30 min at 37° C. in serum-free RPMI-1640 supplemented with 0.1% BSA. The antibody solution (Metuzumab or the chimeric antibody cHAb18 mAb) that has been adjusted to a concentration of 0.001, 0.01, 0.1, 1 or 10 μg/ml was dispensed at 100 μl/well into each well that contained the target cells, Subsequently, 100 μl of the effector cells at an effector/target ratio of 50:1 was dispensed into each well, and incubated at in a carbon dioxide incubator. The cells were incubated for an additional 24 h prior to the detection of cell death by measuring lactate dehydrogenase (LDH) activity in the medium using a Cytotoxicity Detection Kit (LDH; Roche) according to the manufacturer's protocols. The ADCC-inducing activity was calculated to the following formula: Cytotoxicity (expressed as a percentage)=(experimental cell lysis−spontaneous effector lysis−spontaneous target lysis)/(maximum target lysis−spontaneous target lysis)×100%. All assays were performed in triplicate.

NCI-H446 cells = test: as above; type: cell-based; conditions: NCI-H446 target cells
Experimental: as §1, §2, §3

NCI-H520 cells = test: as above; type: cell-based; conditions: NCI-H520 target cells
Experimental: as §1, §2, §3

A549 cells [2] = test: Subcutaneous xenograft model, tumor growth inhibition; type: in vivo, SCID mice; conditions: tail vein
Experimental: Mice injected with A549 cells subcutaneously in the right dorsal flank were treated by intravenous saline; 2 mg/kg Cisplatin and 100 mg/kg Gemcitabine; Metuzumab infusion at 2 mg/kg, 10 mg/kg and 30 mg/kg; combination of 10 mg/kg Metuzumab with 2 mg/kg Cisplatin and 100 mg/kg Gemcitabine; wherein the antibodies were injected twice weekly for 3 week consecutively, while the chemotherapeutic agents were injected once a week for 3 weeks consecutively. The tumors were measured twice a week.
Animals were housed in specific pathogen-free (SPF) condition. For the localized subcutaneous xenograft mouse model, 1×10^6 NCI-H520 or A549 cells, suspended in Hank's balanced salt solution were implanted in the right dorsal flank of male SCID mice (6-8 week old). When tumors reached a mean volume of 100 mm^3, mice were randomized into treatment cohorts (n=10 mice per group). Mice were grouped for different treatments, including Metuzumab treatment groups treated with 2 mg/kg, 10 mg/kg and 30 mg/kg Metuzumab; chemistry treatment group treated with 2 mg/kg Cisplatin and 100 mg/kg Gemcitabine; combination treatment group treated with 10 mg/kg Metuzumab with 2 mg/kg Cisplatin and 100 mg/kg Gemcitabine, or saline (control group) via tail vein, respectively. Antibody injections were administered twice weekly, for 3 weeks consecutively; chemotherapeutic agents were administered once a week, for 3 weeks consecutively. Tumor size was measured twice each week for the duration of the study using calipers. Tumor volumes were determined using the following formula: […]. Antitumor activity was assessed by calculating inhibition ratio of tumor volumes (IRTV) based on medians by using following formula: [1−average (Ttreatment (day x)−Ttreatment (day 0))/average (Tcontrol (day x)−Tcontrol (day 0))]×100%.

EC50% (ADCC) (A549 cells [1]; effector/target 50:1, 24 h): 0.06 µg/mL
EC50% (ADCC) (NCI-H446 cells; effector/target 50:1, 24 h): 0.11 µg/mL
EC50% (ADCC) (NCI-H520 cells; effector/target 50:1, 24 h): 0.04 µg/mL
Substance: Metuzumab: human-mouse chimeric anti-CD147 IgG1, heavy chain SEQ ID NO: 4, light chain SEQ ID NO: 3, Mannose-5 glycoform lacking fucose and xylose
ADCC-inducing activity increase over cHAb18 mAb (A549 cells [1]): about 10 folds
ADCC-inducing activity increase over cHAb18 mAb (NCI-H446 cells): about 10 folds
ADCC-inducing activity increase over cHAb18 mAb (NCI-H520 cells): about 10 folds
tumor volume inhibition rate (A549 cells [2]; 2 mg/kg twice weekly for 3 weeks): 14.78%
tumor volume inhibition rate (A549 cells [2]; 10 mg/kg twice weekly for 3 weeks): 26.52%
tumor volume inhibition rate (A549 cells [2]; 30 mg/kg twice weekly for 3 weeks): 50.64%
